Assay results taken from patent US20080193530A1 (priority 2007, published 2008).
“Also recorded” adds a separate entry of the source.

Test system: glycosylated hemoglobin level (HbA1C)
Assay: Clinical study of ranolazine (IV dose, then oral sustained release) vs placebo in patients having coronary disease: HbA1C
Type: in vivo, human
Text: Baseline is in-hospital visit prior to hospitalization.

[1] = Diabetes at enrollment, ranolazine group (n = 1098), Month 16
[2] = No Diabetes at enrollment, ranolazine group (n = 2170), Final Visit
[3] = No Diabetes at enrollment, ranolazine group (n = 2170), Month 4
[4] = No Diabetes at enrollment, ranolazine group (n = 2170), Month 8
[5] = No Diabetes at enrollment, ranolazine group (n = 2170), Month 16

`COc1ccccc1OCC(O)CN1CCN(CC(=O)Nc2c(C)cccc2C)CC1` (racemic) [Ranolazine, (±)-N-(2,6-dimethylphenyl)-4-[2-hydroxy-3-(2-methoxyphenoxy)-propyl]-1-piperazineacetamide] was tested, and the “Proportion of patients with HbA1c ≧7% by diabetes at enrollment” value (Diabetes at enrollment, ranolazine group (n = 1098), Baseline) was 57%, the “Proportion of patients with HbA1c ≧7% by diabetes at enrollment” value (Diabetes at enrollment, ranolazine group (n = 1098), Final Visit) was 42% and the “Proportion of patients with HbA1c ≧7% by diabetes at enrollment” value (Diabetes at enrollment, ranolazine group (n = 1098), Month 4) was 41%. For the same compound, the “Proportion of patients with HbA1c ≧7% by diabetes at enrollment” value (Diabetes at enrollment, ranolazine group (n = 1098), Month 8) was 44%, the “Number of patients with HbA1c ≧7% by diabetes at enrollment” value [1] was 63 and the “Proportion of patients with HbA1c ≧7% by diabetes at enrollment” value [1] was 48%. For the same compound, the “Proportion of patients with HbA1c ≧7% by diabetes at enrollment” value (No Diabetes at enrollment, ranolazine group (n = 2170), Baseline) was 6%, the “Number of patients with HbA1c ≧7% by diabetes at enrollment” value [2] was 92 and the “Proportion of patients with HbA1c ≧7% by diabetes at enrollment” value [2] was 6%. For the same compound, the “Number of patients with HbA1c ≧7% by diabetes at enrollment” value [3] was 78, the “Proportion of patients with HbA1c ≧7% by diabetes at enrollment” value [3] was 5% and the “Number of patients with HbA1c ≧7% by diabetes at enrollment” value [4] was 72. For the same compound, the “Proportion of patients with HbA1c ≧7% by diabetes at enrollment” value [4] was 6%, the “Number of patients with HbA1c ≧7% by diabetes at enrollment” value [5] was 21 and the “Proportion of patients with HbA1c ≧7% by diabetes at enrollment” value [5] was 7%. The “Effect on serum HbA1c levels (FIGS. 1 and 2)” value (all patients treated) was “HbA1c lowering effect on all patients treated; also recorded: significantly lowers serum HbA1C levels”, the “Number of patients with HbA1C ≧7%” value (all patients, ranolazine group (n = 3268), Month 16) was 84 and the “Effect on HbA1c levels (FIG. 2)” value (diabetic patients treated with ranolazine) was “reduction in the amount of HbA1C levels”. The “Effect on HbA1c levels (FIG. 2)” value (non-diabetic patients treated with ranolazine) was “reduction in the amount of HbA1C levels”.
